In ChEMBL document CHEMBL4842376, “Design, synthesis and biological evaluation of novel hybrids targeting mTOR and HDACs for potential treatment of hepatocellular carcinoma” (Eur J Med Chem, 2021):

Legend:
Format in all cases: functional, cell-based
[1] = system: Huh-7; experiment: cells; details: Homo sapiens, Huh-7, 72 h
Description: Antiproliferative activity against human Huh-7 cells assessed as inhibition of cell growth measured after 72 hrs by MTT assay

[2] = system: HepG2; experiment: Antiproliferative activity against human HepG2 cells assessed as inhibition of cell growth measured after 72 hrs by MTT assay; details: HepG2, 72 h
[3] = system: SK-HEP1; experiment: cells; details: Homo sapiens, SK-HEP1, 72 h
Description: Antiproliferative activity against human SK-HEP1 cells assessed as inhibition of cell growth measured after 72 hrs by MTT assay

[4] = system: CNE-2; experiment: cells; details: Homo sapiens, CNE-2, 72 h
Description: Antiproliferative activity against human CNE-2 cells assessed as inhibition of cell growth measured after 72 hrs by MTT assay

[5] = system: A549; experiment: cells; details: Homo sapiens, A549, 72 h
Description: Antiproliferative activity against human A549 cells assessed as inhibition of cell growth measured after 72 hrs by MTT assay

[6] = system: HCT-116; experiment: cells; details: Homo sapiens, HCT-116, 72 h
Description: Antiproliferative activity against human HCT-116 cells assessed as inhibition of cell growth measured after 72 hrs by MTT assay

[7] = system: MCF7; experiment: cells; details: Homo sapiens, MCF7, 72 h
Description: Antiproliferative activity against human MCF7 cells assessed as inhibition of cell growth measured after 72 hrs by MTT assay

[8] = system: HeLa; experiment: cells; details: Homo sapiens, 72 h
Description: Antiproliferative activity against human HeLa cells assessed as inhibition of cell growth measured after 72 hrs by MTT assay

[9] = system: Hep 3B2; experiment: cells; details: Homo sapiens, Hep3B, 72 h
Description: Antiproliferative activity against human Hep3B cells assessed as inhibition of cell growth measured after 72 hrs by MTT assay

[10] = system: MDA-MB-231; experiment: cells; details: Homo sapiens, MDA-MB-231, 72 h
Description: Antiproliferative activity against human MDA-MB-231 cells assessed as inhibition of cell growth measured after 72 hrs by MTT assay

[11] = system: PLC-PRF-5; experiment: Antiproliferative activity against human PLC-PRF-5 cells assessed as inhibition of cell growth measured after 72 hrs by MTT assay; details: PLC-PRF-5, 72 h

| Compound | IC50 [1] [µM] | IC50 [2] [µM] | IC50 [3] [µM] | IC50 [4] [µM] | IC50 [5] [µM] | IC50 [6] [µM] | IC50 [7] [µM] | IC50 [8] [µM] | IC50 [9] [µM] | IC50 [10] [µM] | IC50 [11] [µM] |
| --- | --- | --- | --- | --- | --- | --- | --- | --- | --- | --- | --- |
| Nc1ncnc2c1c(-c1cnc3[nH]ccc3c1)nn2CCCCCC(=O)NO | > 100 | 12.9 | > 150 | > 50 | > 150 | 63.7 | > 150 | > 150 | > 50 | > 100 | > 150 |
| Nc1ncnc2c1c(-c1cnc3[nH]ccc3c1)nn2CCCCC(=O)NO |  | 36.6 |  | > 150 | > 150 | > 150 | > 150 | > 150 |  | > 50 |  |
| Nc1ncnc2c1c(-c1cnc3[nH]ccc3c1)nn2CCCC(=O)NO |  | > 50 |  | > 150 | > 150 | > 150 | > 150 |  |  | > 150 |  |
| Nc1nc2cc(-c3nn(CCCC(=O)NO)c4ncnc(N)c34)ccc2o1 |  | > 50 |  | > 50 | > 100 | 19.6 | > 50 | > 150 |  | 19.5 |  |
| Nc1nc2cc(-c3nn(CCC(=O)NO)c4ncnc(N)c34)ccc2o1 |  | > 150 |  | > 150 | > 150 | > 100 | > 100 | > 150 |  | > 50 |  |
| Nc1ncnc2c1c(-c1cnc3[nH]ccc3c1)nn2CC(=O)NO |  | > 150 |  | > 150 | > 150 | > 150 | > 150 |  |  | > 150 |  |
| Nc1ncnc2c1c(-c1cnc3[nH]ccc3c1)nn2CCC(=O)NO |  | > 150 |  | > 150 | > 150 | > 150 | > 150 |  |  | > 150 |  |
| Nc1nc2cc(-c3nn(CC(=O)NO)c4ncnc(N)c34)ccc2o1 |  | > 150 |  | 12.2 | 27.7 | 11.4 | > 100 | > 150 |  | 6.31 |  |
